Literature values, collected in US20160361270A1, “UNIFORM, HIGH BASIS WEIGHT NANOFIBER FABRICS FOR MEDICAL APPLICATIONS” (University of Washington, priority 2015, published 2016).

Legend:
[1] = not given; remark: listed apart in the source

water solubility [1]	Compound	pKa
–	Cc1nnc(C(=O)NC(C)(C)c2nc(C(=O)NCc3ccc(F)cc3)c(O)c(=O)n2C)o1 [raltegravir]	7
< 1 µg/mL	Cc1cc(C)c(Nc2ccnc(Nc3ccc(C#N)cc3)n2)c(C)c1 [dapivirine]	–
< 100 µg/mL	Cc1cc(C#N)cc(C)c1Oc1nc(Nc2ccc(C#N)cc2)nc(N)c1Br [etravirine]	–

Compound	water solubility [1]	pKa
C[C@H](Cn1cnc2c(N)ncnc21)OCP(=O)(O)O [tenofovir]	> 1000 µg/mL	–
